The values below come from patent publication US20050043260A1, “Wnt as a factor for cardiac myogenesis” (BAYLOR COLLEGE OF MEDICINE, priority 2003, published 2005).

Each structure is given as a SMILES string.

Holding throughout (type): cell-based
The subject of assay [1] is P19CL6 cells. The assay is described as follows: Cardiac-specific gene expression by QRT-PCR in differentiating P19CL6 cells. The arrangement: expression of Nkx2.5, GATA4, Tbx5, BMP2, BMP4: dose or concentration left out as unconfirmed. The method, then: (§1) Cells were grown on 10 cm dishes in α-minimal MEM; Invitrogen) supplemented with 10% fetal bovine serum (FBS) (Hyclone), streptomycin. To induce differentiation, cells were seeded at a 1:40 dilution with α-MEM, DMSO. For each experiment, cardiomyocyte differentiation was apparent in the control spontaneous beating, starting day 9 to 10. To obtain stable transformants incorporating GSK-vector control, cells were transfected using Lipofectamine2000 (Invitrogen) and medium containing 500 μg/ml Geniticin (Invitrogen). After 10-14 day, 60 colonies were picked and screened by RT-PCR. To detect exogenous GSK-3β selectively, the 5′ primer corresponded to the N terminus and the 3′ primer to the H. influenza hemagglutinin epitope tag.
RNA was isolated using TRIzol (Invitrogen). RNA (0.1 μg) was subjected to quantitative RT-PCR using the TaqMan One-step RT-PCR Master Mix Biosystems); the RT and PCR were run sequentially using a 7700 Sequence Detector (Applied Biosystems). Copy number for each transcript was expressed relative to that of glyceraldehyde-3-phosphate dehydrogenase (GAPDH), used as a constitutive control. RT-PCR for FGF8 and β-actin was done as described by Lee et al., 2000).

Assay [2] relates to P19CL6 cells. Description: Sarcomeric MHC immunostaining (MF20-positive cells). The note with it: LiCl, day 12. The arrangement: dose or concentration left out as unconfirmed. The protocol:
(§2) Cells were seeded on glass cover slips and cultured with or without DMSO for 3 days. Cells were fixed with 4% paraformaldehyde and penneablized with 0.2% Triton X-100 for 5 min. To detect phosphorylated β-catenin, cells were incubated overnight with rabbit antibody to phoshpo-β-catenin (Ser33/Ser37/Thr4l; Cell Signaling) in Tris-buffered saline, 3% bovine serum albumin, then for 1 hr with goat antibody to rabbit IgG conjugated with Alexa Fluor 488 (Molecular Probes). Immunostaining for sarcomeric myosin heavy chains (MHC) was performed using fluorescein isothiocyanate-conjugated MF20 antibody (Oh et al., 2001). Nuclei were counterstained with DAPI.

The subject of assay [3] is P19CL6 cells. Description: Spontaneous beating of differentiating cells. The method, then:
as §1

For assay [4], the system named is TCF-dependent transcription. The assay is described as follows: TCF-dependent transcription, TOPFLASH luciferase assay in P19CL6 cells. The note with it: DMSO treatment for 4 days. The protocol: Cells were seeded and cultured as above and transfected 1 day after plating, using in serum-free αMEM for 6 hr. Transfections contained 0.5 μg TOPFLASH or 0.1 μg pRL-CMV as the co-transfected control. Medium containing 10% FBS with or without DMSO changed 6 and 48 hr after transfection. Cells were lysed 4 days after DMSO treatment and luciferase assayed using the Dual-Luciferase system (Promega). Firefly luciferase activity, indicating TCF-dependent transcription, was normalized to the Renilla luciferase activity of each extract. TOPFLASH activity induced by Wnt3A CM versus control CM was measured after 18 hr. Activity of the GSK-3βA9 expression vector was corroborated by transient transfection in 293T cells: cells were passaged at a 1:2.5 dilution into 24-well dishes, and TOPFLASH, pRL-CMV, and PGK-Wnt3A were co-transfected by calcium-phosphate precipitation along with pcDNA3-GSK-3βA9-HA versus the empty vector control (Jordan et al., 1996). Twenty-four hrs after transfection, the medium was changed to Dulbecco's modified Eagle's medium (DMEM) supplemented with 0.2% BSA. Forty-eight hrs after transfection, cells were lysed and luciferase activities were assayed.

The test system of another assay is β-catenin. The assay is described as follows: β-catenin and phospho-β-catenin Western blot / immunostaining in differentiating cells. The method, then: as §2
Cells were seeded on 6-well dishes (1.67×10^6 cells/well) and cultivated with or without 1% DMSO and 500 ng/ml Fx/FC chimeric protein. After 3 days, cells were harvested in phosphate-buffered saline in 4 C, centrifuged, and resuspended in 20 mM Tris-HCl, pH 7.5, 25 mM sodium fluoride, 1 mM EDTA, containing a protease inhibitor cocktail (Roche Molecular Biochemicals). Cells were incubated on ice for 20 min, followed by 30 strokes in a Dounce homogenizer, and centrifuged at 100,000×g for 30 min. The supernatant was collected as the soluble, cytoplasmic fraction and electrophoresised in 10% SDS-polyacrylamide gels. […]
A general note: In western blotting, separated proteins are transferred to a membrane and probed.

In the case of `[Cl-].[Li+]` [LiCl], the “expression of Nkx2.5, GATA4, Tbx5, BMP2, BMP4” value in the assay on P19CL6 cells [1] (d 5, QRT-PCR) is recorded as “significantly increased”. For the same compound, the “effect on each of the early cardiac markers and on sarcomeric MHC” value in the assay on P19CL6 cells [1] (in the absence of DMSO) is reported as “inductive effect”. Also, the MF20-positive cells entry in the assay with P19CL6 cells [2] is recorded as “significantly increased”. In addition, the spontaneous beating result with P19CL6 cells [3] (treated alone, without DMSO) is listed as “did not show spontaneous beating”.

In the case of `C[S+](C)[O-]` [DMSO], the “increase in luciferase activity (TCF-dependent transcriptional activity)” value in assay [4] came out at 9 fold. Moreover, the “phosphorylated β-catenin” value in the assay with β-catenin (DMSO treatment for 3 days, immunoblotting and immunocytochemistry) was “decreased”. For the same compound, the “soluble (cytosolic) β-catenin level” value with β-catenin (DMSO, day 3, Western blot) is given as “accumulation of soluble β-catenin”. In addition, the “time to expression of Nkx2.5, GATA4, MEF2C, and Tbx5 as early stage markers” value with P19CL6 cells [1] (1% DMSO treatment, QRT-PCR) fell in the range of 3 to 8 days. Moreover, in the assay on P19CL6 cells [1] (after DMSO treatment, expression greatest on day 3), the “Wnt3A and Wnt8A induced as early as” value worked out at 2 days. The spontaneous beating visible with P19CL6 cells [3] (1% DMSO treatment) lay in the range of 9 to 10 days.
